Numbered stars: 1 amine (or outer) side, 2 acyl side, 3 side chain; on linkers, the order of the positions; unused ones are H or OH. Bridge positions count the residues as written; N and C are the ends. Square brackets hold non-standard residues; d marks the D form. Peptide text beside a SMILES is read from it. CO = O=C([*:1])[*:2]; Nlys = NCCCCNCC(=O)O
Tests used:
[1] = tested on: MyD88-dependent signaling; test: Library screen: TNFα production by U937 macrophage cells stimulated with PAM3Csk; assay type: cell-based, human; conditions: PAM3Csk overnight, peptide concentration estimated 2-4 μM
Method: FIG. 4. Screening results of the peptide library of 16 compounds. Human macrophage U937 cells were stimulated with PAM3csk overnight in the absence or presence of each of the cyclic peptides. Human TNFα levels in the supernatants were determined by ELISA. […].
The backbone cyclic library of 16 compounds synthesized in Example 3 was screened for inhibition of MyD88-dependent signaling through innate immune receptors employing the human macrophage cell line U937. […] The concentration of the cyclic peptides in the library was estimated to be 2-4 μM.

[2] = tested on: NFκB p65 nuclear translocation; test: NFκB p65 nuclear translocation in HeLa cells stimulated with TNFα or IL-1β; assay type: cell-based
Method: FIG. 6. HeLa assay showing specificity of MyD88 inhibition. HeLa cells were stimulated with recombinant TNFα or IL-1β and NFkB localization was determined with anti-p65 conjugated to rhodamine. The percent of cells with nuclear localization was determined and is shown in the bar graphs on the right. 6A: Top row, HeLa cells transduced with control shRNA. Second row, shRNA knock-down of MyD88. 6B: Top row, HeLa cells treated with MyD88 inhibitor linear peptide. Bottom row, HeLa cells treated with scrambled control version of the MyD88 inhibitor linear peptide (SEQ ID NO: 5).
FIG. 7. HeLa assay showing specificity of MyD88 inhibition by 4×4MyDI. HeLa cells were stimulated with recombinant TNFα or IL-1b and NFkB localization was determined with anti-p65 conjugated to rhodamine. The percent of cells with nuclear localization was determined, and is shown in the bar graphs on the right. Top row, HeLa cells with no pre-treatment. Second row, HeLa cells pre-treated for 30 min with the backbone cyclic 4×4MyDI compound.
Lead compounds were further tested in vitro to confirm the specificity of the inhibition. A fluorescence-based in vitro activity assay that determines the degree of activation of the transcription factor NFκB was established. In this assay, cells are treated with either TNFα or IL-1b, both inflammatory cytokines that activate NFκB. Upon activation, the p65 unit of the NFκB transcription factor re-locates from the cytoplasm to the nucleus. Using fluorescently-tagged antibodies to p65, the cytoplasmic vs. nuclear localization of the factor is determined. Importantly, since the signaling of IL-1b, but not TNFα, is dependent on MyD88, this assay can establish the specificity of the inhibition achieved using the lead compounds.
Cells were activated with either IL-1β (the signaling of the IL-1 receptor is dependent on MyD88), or with TNFα (signaling of its receptor is independent of MyD88). The activation was measured by the translocation of NFκB from the cytoplasm to the nucleus. As a positive control, a stable MyD88 knock-down cell line was established using lentiviral encoded shRNA.
Using the same system, when cells were treated with the backbone cyclic peptide 4×4MyDI, activation by IL-1β was blocked, however when treated with TNFα the activation was not inhibited.

MyD88 TIR domain = target: T1, MyD88 TIR domain (Homo sapiens, UniProt Q99836); test: Competition assay: binding of biotinylated linear BB loop peptide to MyD88 TIR domain; conditions: different concentrations
T1 construct: made in house
T1 sequence (Q99836 151-296): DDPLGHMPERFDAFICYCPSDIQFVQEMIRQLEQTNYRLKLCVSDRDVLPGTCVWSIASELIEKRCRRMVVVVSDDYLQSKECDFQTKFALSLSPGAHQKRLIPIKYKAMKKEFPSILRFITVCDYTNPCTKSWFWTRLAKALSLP
Method: FIG. 9. 4×4MyDI binds to the BB loop region of the MyD88 TIR domain. A 96 well plate was coated with recombinant MyD88 (8 μg/ml) in coating buffer vs. buffer alone, and wells were blocked with 1% BSA. Biotinylated linear peptide was added to all wells (125 μg/ml) followed by streptavidin-HRP and substrate. The signal of linear peptide bound to its target was inhibited by incubation with the 4×4MyDI (*P<0.05) but not by incubation with the scrambled version of the linear peptide (SEQ ID NO: 5).
The ability of the 4×4MyDI compound to bind to the target region (the BB loop) of the MyD88 TIR domain, was evaluated using a newly-designed assay. For this goal a competition assay was established that tests the ability of the 4×4MyDI compound to prevent the binding of the biotinylated linear BB loop peptide to the MyD88 TIR domain. The MyD88 TIR domain was produced as a recombinant protein fused to the SUMO3 protein (Accession # NP_008867), purified, and attached to a 96 well plate. Binding of biotinylated RDVLPGT (SEQ. ID NO: 1) peptide was detected using streptavidin conjugated to horse radish peroxidase (HRP) followed by the addition of HRP substrate.

NFkB activation = test: NFkB-luciferase reporter in RAW 264.7 macrophages stimulated with LPS; assay type: cell-based, mouse; conditions: RAW 264.7 NFkB-luc, 4 hours
Method: FIG. 13. 4×4MyDI and Myr4×4MyDI block NFkB induction in response to LPS stimulation of RAW 264.7 NFkB-luc cells. RAW 264.7 murine macrophages were transfected with an NFkB-luciferase reporter gene and stimulated with LPS in the absence or presence of increasing concentrations of the inhibitors. After 4 hours cells were lysed and luminescence was recorded using a Tecan plate reader. BG denotes background.
In this assay the mouse macrophage RAW264.7 cell line is transfected with an NFkB-luciferase reporter construct and then cells are stimulated by exposure to bacterial LPS and light emission is measured after addition of luciferase substrate.

[3] = tested on: OCI-LY3 (MyD88 L265P) cells; test: Proliferation of lymphoma cells (Promega CellTiter viability assay); assay type: cell-based, human; conditions: 48 h; compared with OCI-LY19 (MyD88 WT)
Method: FIGS. 18A and 18B. 4×4MyDI and Myr-4×4MyDI block proliferation of Ly3 lymphoma cells that carry the L265P oncogenic mutation in MyD88. Cell lines OCI-LY3 (MyD88^L265P) and OCI-LY19 (MyD88^WT) were grown in RPMI supplemented with 10% FCS. Cells were counted and plated at identical concentrations in triplicate wells of 96 well plates and decreasing concentrations of 4×4MyDI […], or Myr-4×4MyDI (19B), was added to the wells. After 48 h cell viability was tested using the Promega CellTiter viability assay according to the manufacturer's instructions. Percent inhibition was calculated as [(1-OD of well with inhibitor/OD of well without inhibitor)*1001. Negative values in A represent enhanced growth in the presence of the inhibitor.
Genomic DNA was prepared from the human lymphoma cell lines OCI-LY3 (MyD88^L265P) and OCI-LY19 (MyD88^WT) to confirm the presence of the activating L265P mutation in the OCI-Ly3 cells (and the WT sequence in the OCI-Ly19 cells). The MyD88 region was amplified using the forward and reverse primers GGGATATGCTGAACTAAGTTGCCAC (SEQ ID NO: 7) and GACGTGTCTGTGAAGTTGGCATCTC (SEQ ID NO: 8), respectively, as described in Xu, L. et al Blood (2013) 121(11): 2051-2058. The PCR product was sequenced to confirm the mutation.
The cell lines were incubated alone or with increasing concentrations of the 4×4MyDI. […]

Method for CaCO-2 monolayer: Transport studies are performed through the CaCO-2 monolayer (passage range of 52-60) seeded at density of 25×10^5 cells/cm^2 on untreated culture inserts of polycarbonate membrane with 0.4 μm pores and surface of 1.1 cm^2. The culture inserets containing Caco-2 monolayers were place in 24 transwell plates 12 mm, Costar™. The cells were monitored for their transepithelial electrical resistance (TEER) measurements to assure TEER between 300 and 500 Ω*cm^2. […] HBSS supplemented with 10 mM MES and adjusted to pH 6.5 will be used as transport medium in the donor compartment and pH 7.4 in the acceptor compartment. The donor solution contains the test compound.
The investigation of the permeability of 4×4MyDI through CaCO-2 monolayer includes using two main control groups, Atenolol and Metoprolol that show passive para-cellular and trans-cellular permeability, respectively. The CaCO-2 model allows investigating the mechanism of absorption, so the permeability from apical to basolateral membranes (AB) can be measured to evaluate the total permeability. The permeability from basolateral to apical membranes (BA) can also be measured and compared to AB P apparent (Papp) to determine if the absorption is though passive diffusion, active transporters or if there is involvement of efflux systems.

## CC(C)C[C@@H]1NC(=O)[C@H](C(C)C)NC(=O)[C@H](CC(=O)O)NC(=O)[C@H](CCCNC(=N)N)NC(=O)CN(C(=O)[C@@H](N)Cc2c[nH]c3ccccc23)CCCCNC(=O)NCCCCN(CC(=O)NCC(=O)N[C@H](C(N)=O)[C@@H](C)O)C1=O [4×4MyDI] (H-W[Nlys]RDVL[Nlys]GT-NH2; linker 2-7 via CO; N-terminus assumed)
[1]
  MyD88 inhibitory activity (reduction in TNFα production): intermediate activity
[2]; HeLa cells, IL-1β
  NFκB activation by IL-1β: blocked
[2]; HeLa cells, IL-1β (MyD88 dependent)
  Percent p65 nuclear translocation, IL-1β: 27%
[2]; HeLa cells, TNFα
  NFκB activation by TNFα: not inhibited
[2]; HeLa cells, TNFα (MyD88 independent)
  Percent p65 nuclear translocation, TNFα: 97%
[2]; HeLa cells, no stimulation
  Percent p65 nuclear translocation, No stimulation: 0%
[2]; IL-1β versus TNFα
  specificity of MyD88 inhibition: specific inhibitor
MyD88 TIR domain
  inhibition of binding of the biotinylated peptide to the MyD88 TIR domain: competitively inhibited
NFkB activation
  block of NFkB activation: block NFkB activation in a dose dependent manner
[3]
  proliferation of OCI-Ly3 cells: specifically blocked proliferation
CaCO-2 monolayer
  Papp AB (apical to basolateral): higher than metoprolol

From US10662225B2, “Backbone cyclized inhibitory peptides of myeloid differentiation factor 88 (MyD88)” (Yissum Research Development Company of the Hebrew …, priority 2016, dated 2020)
